Data reported in patent publication US5643926A, “Pyrazolidinone CCK and gastrin antagonists and pharmaceutical formulations thereof” (priority 1994, dated 1997).
Blank lines part the entries; values can stand above or below the compound they belong to.

Columns and labels:
[1] = biological target: T1, peripheral type CCK receptors in rat pancreas (Rattus norvegicus, UniProt P30551); experiment: Binding to peripheral type CCK receptors in rat pancreas (displacement of 3H-L-364,718); conditions: read-out: Pancreas CCK receptor binding, Percent Inhibition at 10 μM
T1 construct: Pancreas was obtained from male Sprague-Dawley rats; from tissue; host or cells: pancreas membranes of male Sprague-Dawley rats
T1 sequence (P30551 1-444): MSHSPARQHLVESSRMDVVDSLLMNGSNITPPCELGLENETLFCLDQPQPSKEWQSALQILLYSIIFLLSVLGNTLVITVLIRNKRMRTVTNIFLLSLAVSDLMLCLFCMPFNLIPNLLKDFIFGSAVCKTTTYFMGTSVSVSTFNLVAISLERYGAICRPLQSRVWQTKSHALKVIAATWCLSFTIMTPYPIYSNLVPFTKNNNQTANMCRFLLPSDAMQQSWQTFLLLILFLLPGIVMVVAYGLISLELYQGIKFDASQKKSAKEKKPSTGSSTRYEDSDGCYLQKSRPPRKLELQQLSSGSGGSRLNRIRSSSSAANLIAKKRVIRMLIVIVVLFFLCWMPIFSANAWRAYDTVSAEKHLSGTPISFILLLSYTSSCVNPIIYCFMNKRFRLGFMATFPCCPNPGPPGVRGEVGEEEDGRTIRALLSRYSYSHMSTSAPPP
Procedure: (§1) Test Procedures for CCK and Gastrin Receptor Binding (IC50)
Binding to peripheral type CCK receptors in rat pancreas was done according to the method of Chang et al. (Mol. Pharmacol. 30: 212-217, 1986) using ^3 H-L364, 718. Pancreas was obtained from male Sprague-Dawley rats, 150-200 g, after decapitation, and dissected free from adipose and connective tissue. The tissue was homogenized in 30 volumes of 50 mM Tris buffer, pH 7.4 and centrifuged at 40,000 g for 10 min. The tissue pellet was washed by resuspension and centrifugation as described above. The final pellet was suspended in 500 volumes of assay buffer (50 mM Tris buffer, pH 7.4, 5 mM MgCl2, 0.14 mg/ml bacitracin, and 5 mM dithiothreitol) to give a protein concentration of 30-60 μg/200 μl . Reagent volumes for the assay were the same as those used for CCK binding to brain membranes. Tritium labeled L-364,718 (Dupont NEN, NET-971) was used as the ligand at a concentration of 0.4-0.6 nM. The samples were incubated 1 hour at room temperature and then filtered as described for the CCK-brain receptor. Scintillation cocktail was added to the filters which were counted for radioactivity using a Micromedic Taurus automatic liquid scintillation counter.
Compound samples were prepared and IC-50 values were determined as described for the CCK-brain experiments. […]

[2] = biological target: T2, CCK receptor, mouse brain membranes (Mus musculus, UniProt P56481); experiment: Brain CCK receptor binding (displacement of 125I-CCK-8 sulfate, mouse brain membranes)
T2 construct: from tissue; host or cells: forebrain membranes of male CF-1 mice
T2 sequence (P56481 1-453): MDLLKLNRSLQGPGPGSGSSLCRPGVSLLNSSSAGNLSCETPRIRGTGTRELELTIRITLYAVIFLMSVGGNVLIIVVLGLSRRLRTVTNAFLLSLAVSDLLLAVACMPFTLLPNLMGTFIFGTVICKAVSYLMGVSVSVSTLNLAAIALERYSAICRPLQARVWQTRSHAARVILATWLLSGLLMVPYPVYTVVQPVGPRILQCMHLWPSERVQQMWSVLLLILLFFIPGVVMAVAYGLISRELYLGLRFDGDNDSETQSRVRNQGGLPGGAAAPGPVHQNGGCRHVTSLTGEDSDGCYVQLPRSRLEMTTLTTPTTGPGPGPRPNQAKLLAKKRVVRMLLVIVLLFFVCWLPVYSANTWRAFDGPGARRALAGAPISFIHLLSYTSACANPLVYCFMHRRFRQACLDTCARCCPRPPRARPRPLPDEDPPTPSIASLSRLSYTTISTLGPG
Procedure: as §1
Brain CCK receptor binding was performed using mouse brain membranes according to the method of Chang and Lotti (Proc. Natl. Acad. Sci. 83: 4923-4926, 1986). Male CF-1 mice, 23-25 g were sacrificed by cervical dislocation, the forebrain removed and placed in ice cold 50 mM Tris buffer, pH 7.4. The tissue was homogenized in 100 volumes of the Tris buffer with a Brinkman Polytron or Tekmar Tissumizer and then centrifuged at 40,000 g for 10 min. Pellets were resuspended in Tris buffer, centrifuged as above and then resuspended in 100 volumes of assay buffer, pH 6.5 (20 mM N-2-hydroxyethyl-piperazine-N'-2-ethane sulfonic acid (HEPES), 1 mM ethylene glycol bis(2-aminoethyl ether-N,N,N',N'-tetraaceticacid) (EGTA), 5 mM MgCl2, 130 mM NaCl, and 0.25 mg/ml bacitracin). The binding assay consisted of 50 μL of compound (or buffer for total binding), 50 μL of ^125 I-CCK-8 sulfate (20 pM) (Amersham IM-159), 200 μL of assay buffer and 200 μL of homogenate (80-120 μg protein). The samples were incubated at room temperature (25°) for 2 hours, and they were then filtered through GF/B glass fiber filters (soaked in wash buffer for 2 hours before use) using a 48 well Brandel cell harvester designed for receptor binding. The filters were washed twice with 3 ml of 50 mM Tris buffer, pH 7.4, containing 0.01% BSA and then counted for radioactivity in plastic tubes with a Micromedic 10/600 automatic gamma counter.
Compounds were dissolved in dimethyl sulfoxide (DMSO) at a concentration of 10 mM and then further diluted with assay buffer. The concentration of DMSO in the incubation was 0.1% or less and had no effect on the assay at that level. IC-50 values of displacement curves were determined using 7 concentrations of compound and were calculated using the ALLFIT computer program of DeLean, Munson and Rodbard (Am. J. Physiol. 235: E97-E102, 1978). Non-specific binding was determined as the displacement of the radioligand by 100 nM CCK-8 sulfate.
Table III below summarizes representative CCK and gastrin-binding tests results for exemplified compounds in accordance with this invention.

Titration pKa = type: physicochemical; conditions: 2:1 DMF:H2O as solvent
Source text: Tetrahydrofuran (THF) was dried by distillation from sodium/benzophenone.

[3] = biological target: T3, gastrin receptor, guinea pig stomach mucosal membranes (Cavia porcellus, UniProt H0VZC5); experiment: Gastrin binding to guinea pig stomach mucosal membranes (displacement of 125I-gastrin I); conditions: guinea pig gastric mucosa
T3 construct: Guinea pig stomach fundus was obtained from male Hartley guinea pigs; from tissue; host or cells: stomach fundus mucosal membranes of male Hartley guinea pigs
T3 sequence (H0VZC5 1-426): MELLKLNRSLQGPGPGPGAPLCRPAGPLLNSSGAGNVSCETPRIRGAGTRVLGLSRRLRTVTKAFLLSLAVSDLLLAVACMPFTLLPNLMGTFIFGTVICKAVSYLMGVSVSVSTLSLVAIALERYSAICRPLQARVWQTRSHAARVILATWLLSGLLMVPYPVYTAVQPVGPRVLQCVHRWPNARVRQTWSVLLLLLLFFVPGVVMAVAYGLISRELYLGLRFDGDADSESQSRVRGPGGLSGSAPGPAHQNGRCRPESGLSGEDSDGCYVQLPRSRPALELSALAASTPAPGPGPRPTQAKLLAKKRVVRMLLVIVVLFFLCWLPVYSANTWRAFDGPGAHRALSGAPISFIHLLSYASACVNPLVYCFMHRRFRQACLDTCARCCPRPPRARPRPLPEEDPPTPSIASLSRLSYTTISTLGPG
Procedure: as §1
The method used for gastrin binding to guinea pig stomach mucosal membranes was similar to that described by Takeuchi, Speir and Johnson (Am. J. Physiol. 237(3): E284-E294, 1979). Guinea pig stomach fundus was obtained from male Hartley guinea pigs, 300-350 g, and the mucosa was scraped off with a glass slide. The mucosa was homogenized in 50 mM Tris buffer, pH 7.4, containing 1 mM phenylmethanesulfonyl fluoride using a Dounce glass homogenizer, and the suspension was centrifuged at 40,000 g for 10 min. The resulting pellet was resuspended and centrifuged once more, the final pellet was then suspended in 100 ml assay buffer per 1 guinea pig stomach to give a protein concentration of 200-300 μg/200 μl. The assay buffer consisted of 50 mM Tris buffer, pH 7.4, 5 mM MgCl2, 0.14 mg/ml bacitracin, and 1 μg/ml each of leupeptin, chymostatin, aprotinin and pepstatin. Reagent volumes for the assay were the same as those used for CCK binding to brain membranes. […] The samples were incubated 3 hours at room temperature and filtered and counted as described for CCK binding to brain membranes. Compound samples were prepared and IC-50 values were determined as described for the CCK-brain receptor binding. Non-specific binding was determined using 100 nM gastrin I (human synthetic from Sigma Chemical Co.). […]

inhibition at 10 µM [1]: 4%
Compound: O=C1NN(C(=O)Cc2ccc(C(F)(F)F)cc2)[C@@H](c2ccccc2)[C@@H]1c1ccccc1 (relative stereo) [Example 77]

Brain CCK receptor binding, Percent Inhibition at 10 μM ([2]; at 10 μM): 67%
Compound: 1-[(4-Bromophenyl)aminocarbonyl]-2-(O-t-butyl-carboxymethyl)-4,5-diphenyl-3-pyrazolidinone and 1-[(4-bromophenyl)aminocarbonyl]-3-(O-t-butylcarboxymethoxy)-4,5-diphenyl- 2-pyrazoline [Example 11]

titration pKa (Titration pKa): 4.8
Compound: 1-[(4-Bromophenyl)aminocarbonyl]-2-carboxymethyl-4,5-diphenyl-3-pyrazolidinone and 1-[(4-bromophenyl)aminocarbonyl]-3-carboxymethoxy-4,5-diphenyl-2-pyrazoline [Example 12]

Compound: O=C1NN(c2nc3c(Cl)c(Cl)ccc3s2)[C@@H](c2ccccc2)[C@@H]1c1ccccc1 (relative stereo) [Example 86]
IC50 [2]: 1100 nM

IC50 [2]: 10 nM
IC50 [3]: 62 nM
Compound: O=C1NN(C(=O)Nc2ccc3ccccc3c2)[C@@H](c2ccccc2)[C@@H]1c1ccccc1 (relative stereo) [Example 91]

inhibition at 10 µM [1]: 47%
Compound: O=C1NN(C(=O)Nc2ccc(C(F)(F)F)cc2)C(c2ccccc2Cl)C1c1ccccc1 (centres unmarked) [Example 110]

IC50 [2]: 1000 nM
Compound: O=C(O)CN1C(=O)[C@H](c2ccccc2)[C@@H](c2ccccc2)N1C(=O)Nc1ccc(Br)cc1 (relative stereo) [Example 12 (N-), 1-[(4-Bromophenyl)aminocarbonyl]-2-carboxymethyl-4,5-diphenyl-3-pyrazolidinone]
